“Also recorded” adds a separate entry of the source.

Common to all, as to format: in vivo
Test [1] deals with cytokines. As to the kind of experiment: Cytokine analysis of serum samples after administration: other cytokines. The settings on record: male CD-1 mice, LNP-ceDNA 0.5 mg/kg i.v.; cytokines other than IL-6, TNF-alpha, RANTES. An excerpt: (§1) FIGS. 6A, 6B and 6C provide graphs showing data from the experiments described in Example 6.
The test system of test [2] is IL-6. As to the kind of experiment: Cytokine analysis of serum samples after administration: IL-6. The settings on record: male CD-1 mice, LNP-ceDNA 0.5 mg/kg i.v.; relative to ceDNA treatment alone.
Excerpt: as §1

Test [3] has as its system TNF-alpha. The experiment in a line: Cytokine analysis of serum samples after administration: TNF-alpha. The note with it: male CD-1 mice, LNP-ceDNA 0.5 mg/kg i.v.; relative to ceDNA treatment alone.
Excerpt: as §1

In test [4] the test system is RANTES. The experiment in a line: Cytokine analysis of serum samples after administration: RANTES. The settings on record: male CD-1 mice, LNP-ceDNA 0.5 mg/kg i.v.; relative to ceDNA treatment alone.
Excerpt: as §1

For test [5], the system named is luciferase transgene expression from ceDNA vector. The experiment in a line: In-life IVIS imaging of luciferase expression from ceDNA vector. The settings on record: male CD-1 mice, LNP-ceDNA 0.5 mg/kg i.v., day 4 and day 7, compared with ceDNA/polyC group. As for the experimental part: A ceDNA vector encoding luciferase as the transgene (e.g., SEQ ID NO: 56), with a wild-type AAV2 left ITR and a mutant right ITR and a hAAT promoter, methylated to eliminate free CpG, was used. The ceDNA vector was prepared as described above. […] Four replicates were included in each sample group. Body weights were recorded on days 0, 1, 2, 3, 7, 14, 21 and 28. In-life imaging was performed on days 4, 7, 14, 21, and 28 using an in vivo imaging system (IVIS). For the imaging, each mouse was injected with luciferin at 150 mg/kg via intraperitoneal injection at 2.5 mL/kg. After 15 minutes, each mouse was anaesthetized and imaged.

As to dexamethasone palmitate, in test [1], the “levels of other cytokines (serum)” value is given as “not impacting”. Besides, the “induction of IL-6 (serum level)” value in test [2] is recorded as “significantly less induction; also recorded: significantly reduced”. The “induction of TNF-alpha (serum level)” value in test [3] is “significantly less induction; also recorded: significantly reduced”. In test [4], the “induction of RANTES (serum level)” value was “significantly less induction; also recorded: significantly reduced”. Moreover, in test [5], the “total flux (luciferase expression from the ceDNA vector)” value is on record as “no impact”.

Values taken from US20220184231A1, “CLOSED-ENDED DNA (CEDNA) AND IMMUNE MODULATING COMPOUNDS” (Generation Bio Co., priority 2019, published 2022).
